According to US20100160250A1, “METHOD FOR TREATING INFLAMMATORY CONDITIONS” (priority 2008, published 2010):

What was measured:
Type in all cases: cell-based
P2X7 receptor [1] = molecular target: T1, P2X7 receptor (Homo sapiens, UniProt Q99572); experiment: Calcium signalling (Fluo-3, FLIPR) in 1321N1 cells expressing P2X7, BzATP challenge; parameters: expressed in transfected cells; host or cells: human astrocytoma 1321N1 cells; conditions: human astrocytoma 1321N1 cells expressing P2X7, 30 uM BzATP; read-out: Inhibition of Ca^+2 signaling IC50
T1 sequence (Q99572 1-595): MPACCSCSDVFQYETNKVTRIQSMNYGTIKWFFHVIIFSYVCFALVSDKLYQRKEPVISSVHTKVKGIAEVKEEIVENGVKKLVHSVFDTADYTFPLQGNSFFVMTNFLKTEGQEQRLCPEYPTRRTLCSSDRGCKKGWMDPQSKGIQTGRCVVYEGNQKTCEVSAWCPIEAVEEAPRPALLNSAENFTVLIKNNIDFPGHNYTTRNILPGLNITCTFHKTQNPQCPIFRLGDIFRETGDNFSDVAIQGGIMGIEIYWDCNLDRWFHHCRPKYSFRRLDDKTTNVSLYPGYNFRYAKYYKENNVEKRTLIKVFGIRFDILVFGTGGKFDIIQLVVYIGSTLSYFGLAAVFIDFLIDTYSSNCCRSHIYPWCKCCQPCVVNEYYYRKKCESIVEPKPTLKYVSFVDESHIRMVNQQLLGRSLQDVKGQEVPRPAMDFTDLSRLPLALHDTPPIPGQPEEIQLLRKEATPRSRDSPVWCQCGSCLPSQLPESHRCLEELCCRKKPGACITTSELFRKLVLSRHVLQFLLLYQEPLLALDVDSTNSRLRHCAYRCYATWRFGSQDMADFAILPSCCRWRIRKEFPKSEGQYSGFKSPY
Protocol: Inhibition of Ca^2+ influx into the cell by antagonists of the P2X7 receptor measures inhibition of the ion channel activity of the P2X7 receptor.
Human astrocytoma (1321N1) cells expressing P2X7 were grown to confluency in 96-well plates. Cells were loaded with a solution of Fluo-3 AM (2.5 μM final concentration) in an assay buffer consisting of 10 mM KCl, 118 mM NaCl, 0.25 mM CaCl2, 1 mM MgCl2, 20 mM HEPES, 10 mM glucose, pH 7.4. After a 60-minute incubation with Fluo-3 AM at 25° C., cells were washed and stimulated with serially diluted concentrations of compound and then challenged with 30 uM BzATP. Calcium fluorescence was measured using the FLIPR 89 (Molecular Devices Corp., Sunnyvale, Calif.) and results were calculated using Prism Graph Pad version 3.03 (San Diego, Calif.). Inhibition of calcium dependent fluorescence indicates the assayed compound is an antagonist of the P2X7 receptor.

P2X7 receptor [2] = molecular target: T1, P2X7 receptor; experiment: Pore formation assay (Yo-Pro dye influx) in 1321N1 cells expressing P2X7, BzATP challenge; parameters: expressed in transfected cells; host or cells: human astrocytoma 1321N1 cells; conditions: 1321N1 cells expressing P2X7, 100 uM BzATP, Yo-Pro fluorescence after 90 minutes
Protocol: Inhibition of Yo-Pro fluorescent dye influx into the cells following P2X7 receptor activation provides a read-out of compounds potency in inhibition of pore formation activity of the P2X7 receptor.
Assay was conducted essentially as in Alcaraz et al. Human astrocytoma (1321N1) cells expressing P2X7 were seeded in 96-well plates at a density of 200,000 cells/well in assay buffer consisting of 5 mM KCl, 140 mM KAspartate, 10 mM glucose, 10 mM Hepes pH 7.0, 10 mM N-methyl-D-glucoseamine, 1 mM EDTA and 1 uM Yo-Pro dye. Cells were exposed to serially diluted concentrations of compound and then challenged with 100 uM BzATP. Yo-Pro fluorescence was measured after 90 minutes. Inhibition of Yo-Pro dependent fluorescence indicates the assayed compound is an antagonist of the P2X7 receptor.

P2X7 receptor [3] = molecular target: T1, P2X7 receptor; experiment: IL-1β secretion assay in LPS-primed human monocytes stimulated with ATP; parameters: monocytes were selected by adherence to the tissue culture plastic; endogenous in cells; host or cells: LPS-primed adherent monocytes from human peripheral blood; conditions: human peripheral blood monocytes, 1 ng/mL LPS, 1 mM ATP, 30 min; read-out: IL1β inhibition IC50
Text: Inhibition of IL-1β release by antagonists of the P2X7 receptor is a model of ameliorating inflammatory condition. This assay is an in vitro assay of cytokine secretion that can be used to evaluate the ability of compounds of this invention of Formula I to inhibit cytokine secretion, as the secretion of cytokines contributes to the inflammation in asthma, COPD and other pulmonary diseases, as well as in RA, IBD and neuropathic pain.
Peripheral blood from healthy human volunteers was collected in an acid-citrate-dextrose (ACD) buffer to prevent clotting, layered over a Ficoll-Paque gradient (1:1), and centrifuged for 45 minutes at 1200 rpm. The interface between the plasma layer and the Ficoll layer (buffy coat) was then diluted in RPMI 1640/10% heat inactivated FBS and centrifuged for 10 minutes at 1500 rpm. The resultant pellet was re-suspended in media containing 1 ng/mL lipopolysaccharide (LPS) and plated at a density of 500,000 cells/mL. After a 3 hour incubation (37° C., 5% CO2, humidified air) monocytes were selected by adherence to the tissue culture plastic by washing wells with media. Following the media wash, cells were incubated for 2 minutes with the antagonists prior to the addition of 1 mM ATP. Cells were allowed to incubate with compounds for 30 minutes at 37° C. after which the supernatant was removed for immediate determination of IL-1β concentration. The concentration of IL-1β in cell supernatants was measured using the Bio-Plex (Bio-Rad) system according to manufacture's instructions and inhibition constants were calculated using Prism Graph Pad version 3.03 (San Diego, Calif.). IC50 values represent the concentrations of antagonist compounds necessary to inhibit 50% of the activity (calcium dependent fluorescence or IL-1β concentration) elicited by a given concentration of ATP.

| SMILES | IC50 (P2X7 receptor [1]) [nM] | IC50 (P2X7 receptor [2]) [nM] | IC50 (P2X7 receptor [3]) [nM] |
| --- | --- | --- | --- |
| O=C(Nc1ncnc2c1ncn2[C@@H]1O[C@H](C(=O)NCCO)C2OC3(CCCCC3)O[C@@H]21)NC1CCCCC1 (stereo partly drawn) [Compound 44, 6-(cyclohexylurea)adenosine 2′,3′-cyclohexyl ketal 5′-(2-hydroxy)ethyl carboxamide] | 404 | 257 | 58 |
| CCNC(=O)OC[C@H]1O[C@@H](n2cnc3c(NC(=O)NC4CCCCC4)ncnc32)[C@H]2OC3(CCCCC3)OC12 (stereo partly drawn) [Compound 46] | 852 | 234 | 99 |
| CCNC(=O)[C@H]1O[C@@H](n2cnc3c(NC(=O)NC4CCCCC4)ncnc32)[C@H]2OC3(CCCCC3)OC12 (stereo partly drawn) [Compound 43, 6-(cyclohexylurea)adenosine 2′,3′-cyclohexyl ketal 5′-ethyl carboxamide] | 295 | 152 | 69 |

The next lines start with the values.

| IC50 (P2X7 receptor [1]) [nM] | IC50 (P2X7 receptor [2]) [nM] | IC50 (P2X7 receptor [3]) [nM] | SMILES |
| --- | --- | --- | --- |
| 597 | 52 | 98 | O=C(Nc1ncnc2c1ncn2[C@@H]1O[C@H](C(=O)O)C2OC3(CCCCC3)O[C@@H]21)NC12CC3CC(CC(C3)C1)C2 (stereo partly drawn) [Compound 38] |
| 477 | 346 | 65 | O=C(Nc1ncnc2c1ncn2[C@@H]1O[C@H](CO)C2OC3(CCCCC3)O[C@@H]21)NC1CCCCC1 (stereo partly drawn) [Compound 39, 6-(cyclohexylurea)adenosine 2′,3′-cyclohexyl ketal] |
